The source of these data is patent US20240368109A1, “ALLOSTERIC MODULATORS OF NICOTINIC ACETYLCHOLINE RECEPTORS” (MERCK SHARP & DOHME LLC, priority 2021, published 2024).

The test concerns the target human α7 nAChR (Homo sapiens (Human), UniProt P36544). Nature of the test: Automated patch-clamp electrophysiology functional assay (Assay A). Format: cell-based. The note with it: IonFlux HT whole-cell population patch, HEK cells expressing human α7/RIC-3, 40 μM acetylcholine. How it is done:
The α7 nAChR positive allosteric modulator (PAM) activity of the present compounds may be tested using assays known in the art. The α7 nAChR PAMs described herein have activities in an automated patch-clamp electrophysiology functional assay as described in the examples. The assay was performed using the IonFlux HT in a whole-cell, population patch configuration. See Golden et al. Assay Drug Dev. Technol. (2011) 9:608-619. The compounds were assessed for their ability to modulate the function of the human α7 nAChR stably expressed in a HEK cell line both in the presence, and in the absence of the natural α7 agonist acetylcholine. By performing a series of such measurements at different concentrations, the effective concentration of the α7 nAChR PAMs (EC50) was determined. See Spencer et al. Assay Drug Dev. Technol. (2012) 10:313-324.
Direct activation of α7 (agonism), and potentiation of acetylcholine-evoked α7 currents was determined as follows:
Automated Patch-Clamp Electrophysiology Functional Assay (Assay A)
Automated patch-clamp electrophysiology was performed using the IonFluxHT (Fluxion Biosciences Inc., San Francisco, CA) in the whole-cell, population patch configuration. Test compounds were assessed for their ability to modulate the function of the α7 nicotinic acetylcholine receptor both in the presence, and in the absence of the natural α7 agonist acetylcholine. A HEK cell line stably expressing both human RIC-3 and human α7 (PrecisION hnAChR α7/RIC-3, Eurofins Pharma, St. Charles, MO) was cultured in 175 cm^2 triple-layer tissue culture flasks to no more than 90% confluency in DMEM/F-12 growth media supplemented with 10% heat-inactivated fetal bovine serum, 1% non-essential amino acids, 0.625 μg/mL Puromycin, and 400 μg/mL Geneticin. Immediately prior to assay, cells were detached by first aspirating growth media, rinsing with Dulbecco's phosphate buffered saline, and then adding 10 mL of Accutase (Innovative Cell Technologies, San Diego, CA) to the flask and then incubating at 37° C. for 5 minutes. Detached cells were then recovered by the addition of 40 mL of CHO-serum-free media supplemented with 25 mM HEPES, and rocked gently in a 50 mL conical tube for 20 minutes prior to patch-clamp assay. After recovery, cells were pelleted by centrifugation at 1,000 RPM for 1 minute in a compact bench top centrifuge; recovery media was aspirated and cells were resuspended in external recording solution (150 mM NaCl, 5 mM KCl, 2 mM CaCl2), 1 mM MgCl2, 10 mM HEPES, 12 mM dextrose) to a density of 5.0×10^6 cells/mL. The cell suspension was added to the cell inlet wells on an IonFlux HT population patch plate which had previously been rinsed and primed with deionized H2O. Test compounds were serially diluted in DMSO and then resuspended to the final test concentration in external recording solution, with, or without 40 μM acetylcholine added to the external recording solution; test compounds were then transferred to the IonFlux HT population patch plate. Internal recording solution (110 mM TrisPO4, 28 mM TrisBase, 0.1 mM CaCl2), 2 mM MgCl2, 11 mM EGTA, 4 mM MgATP) was added to the internal recording solution inlet wells on the IonFlux HT patch plate previously loaded with cells and test compounds, and the plate loaded into the IonFlux HT instrument. A protocol was executed on the IonFlux HT to trap the cells, break into the cells, and establish the whole-cell recording configuration; cells were voltage-clamped at a holding potential of −60 mV for the duration of the experiment, all experiments were conducted at room temperature, and the IonFlux HT injection pressure was 8 psi for solution applications. Upon establishing the whole-cell configuration, external recording solution was perfused into the recording chambers for 120 seconds and then 40 μM acetylcholine was applied for 1 second and immediately washed off with external recording solution for 60 seconds. […]

Chain of human α7 nAChR (P36544 23-502): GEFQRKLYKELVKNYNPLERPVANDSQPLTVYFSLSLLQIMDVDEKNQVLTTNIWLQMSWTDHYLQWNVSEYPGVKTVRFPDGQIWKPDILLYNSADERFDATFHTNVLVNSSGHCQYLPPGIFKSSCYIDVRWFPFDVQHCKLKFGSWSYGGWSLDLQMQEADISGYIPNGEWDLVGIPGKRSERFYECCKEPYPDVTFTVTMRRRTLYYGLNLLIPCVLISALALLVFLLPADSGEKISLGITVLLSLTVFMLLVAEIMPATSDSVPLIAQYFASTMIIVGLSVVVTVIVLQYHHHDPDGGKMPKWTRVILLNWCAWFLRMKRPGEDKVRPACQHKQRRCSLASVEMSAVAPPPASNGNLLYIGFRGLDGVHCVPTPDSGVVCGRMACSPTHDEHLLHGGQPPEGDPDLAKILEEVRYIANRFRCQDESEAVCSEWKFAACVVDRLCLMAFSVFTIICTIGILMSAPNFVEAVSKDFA

For the compound `O=C(NCc1ccc(-n2cccc2)cc1)C1C2Oc3ccc(F)cc3C21` (stereo not drawn) [Example C25, exo-5-fluoro-N-{[4-(1H-pyrrol-1-yl)phenyl]methyl}-1a,6b-dihydro-1H-cyclopropa[b][1]benzofuran-1-carboxamide], the EC50 (electrophysiology EC50 values) amounted to 850 nM and the EC50 (potency class) lay within 500 to 5000 nM.
For `CC(NC(=O)C1C2Oc3ccc(F)cc3C21)c1ccc(Br)cc1` (stereo not drawn) [Example C37, exo-N-[1-(4-bromophenyl)ethyl]-5-fluoro-1a,6b-dihydro-1H-cyclopropa[b][1]benzofuran-1-carboxamide] the same measures were 1800 nM and 500 to 5000 nM.
On to `COc1cc(CNC(=O)C2C3Oc4ccc(F)cc4C32)on1` (stereo not drawn) [Example C45, exo-5-fluoro-N-[(3-methoxy-1,2-oxazol-5-yl)methyl]-1a,6b-dihydro-1H-cyclopropa[b][1]benzofuran-1-carboxamide], for which the half-maximal effective concentration (EC50) (potency class) lay in the range of 5000 to 50000 nM.
On to `CCOc1ccc([C@@H](NC(=O)C2C3Oc4ccc(F)cc4C32)C(F)F)cn1` (stereo partly drawn) [Example C9, exo-N-[(1R)-1-(6-ethoxypyridin-3-yl)-2,2-difluoroethyl]-5-fluoro-1a,6b-dihydro-1H-cyclopropa[b][1]benzofuran-1-carboxamide], for which the EC50 is, setting by setting: (electrophysiology EC50 values) 1100 nM; (potency class) 500 to 5000 nM.
As for `COc1ccc(-c2cc(CNC(=O)C3C4Oc5ccc(F)cc5C43)on2)cc1` (stereo not drawn) [Example C44, exo-5-fluoro-N-{[3-(4-methoxyphenyl)-1,2-oxazol-5-yl]methyl}-1a,6b-dihydro-1H-cyclopropa[b][1]benzofuran-1-carboxamide], the half-maximal effective concentration (EC50) (potency class) fell in the range of 5000 to 50000 nM.
Still for that read-out and setting: the same measure for `O=C(NCc1nc(Br)no1)C1C2Oc3ccc(F)cc3C21` (stereo not drawn) [Example C41, exo-N-[(3-bromo-1,2,4-oxadiazol-5-yl)methyl]-5-fluoro-1a,6b-dihydro-1H-cyclopropa[b][1]benzofuran-1-carboxamide]: 500 to 5000 nM.
Regarding `COc1cc(C2(NC(=O)C3C4COc5ccccc5C43)CCC2)ccn1` (stereo not drawn) [Example A12, exo-N-[1-(2-methoxypyridin-4-yl)cyclobutyl]-1,1a,2,7b-tetrahydrocyclopropa[c][1]benzopyran-1-carboxamide], the concentration for a half-maximal effect (EC50) was 1500 nM (electrophysiology EC50 values) and 500 to 5000 nM (potency class).
As for `O=C(NCc1nc(Cc2ccccc2)no1)C1C2Oc3ccc(F)cc3C21` (stereo not drawn) [Example C42, exo-N-[(3-benzyl-1,2,4-oxadiazol-5-yl)methyl]-5-fluoro-1a,6b-dihydro-1H-cyclopropa[b][1]benzofuran-1-carboxamide], the concentration giving a half-maximal response (EC50) is, setting by setting: (electrophysiology EC50 values) 6600 nM; (potency class) 5000 to 50000 nM.
For `CCOc1ccc([C@H](CO)NC(=O)C2C3COc4ccc(F)cc4C32)cn1` (stereo partly drawn) [Example A3, exo-N-[(1R)-1-(6-ethoxypyridin-3-yl)-2-hydroxyethyl]-6-fluoro-1,1a,2,7b-tetrahydrocyclopropa[c][1]benzopyran-1-carboxamide], in that order: 2200 nM and 500 to 5000 nM.
For `O=C(NC1(c2ccc(F)cc2)COC1)C1C2COc3ccccc3C21` (stereo not drawn) [Example A1, exo-N-[3-(4-fluorophenyl)oxetan-3-yl]-1,1a,2,7b-tetrahydrocyclopropa[c][1]benzopyran-1-carboxamide] the same measures were 1500 nM and 500 to 5000 nM.
For `O=C(NCc1ccc(Cl)c(F)c1)C1C2Oc3ccc(F)cc3C21` (stereo not drawn) [Example C15, exo-N-[(4-chloro-3-fluorophenyl)methyl]-5-fluoro-1a,6b-dihydro-1H-cyclopropa[b][1]benzofuran-1-carboxamide], in that order: 5600 nM and 5000 to 50000 nM.
In the case of `CCOc1ccc([C@@H](NC(=O)C2C3COc4ccc(F)cc4C32)C(F)F)cn1` (stereo partly drawn) [Example A14, exo-N-[(1R)-1-(6-ethoxypyridin-3-yl)-2,2-difluoroethyl]-6-fluoro-1,1a,2,7b-tetrahydrocyclopropa[c][1]benzopyran-1-carboxamide], the EC50 is, setting by setting: (electrophysiology EC50 values) 1100 nM; (potency class) 500 to 5000 nM.
